In article PMC4823954, “From fighting depression to conquering tumors: a novel tricyclic thiazepine compound as a tubulin polymerization inhibitor” (Cell Death & Disease, 2016):

Experiments:
Test in all cases: KINOMEscan
Format in all cases: binding
Conditions in all cases: read-out: % Ctrl
TRKA = target: T1, TRKA (Homo sapiens, UniProt P04629)
T1 construct: purchased DiscoveRx KINOMEscan
Procedure: (§1) The binding assay for 442 non-mutant kinases was performed using KINOMEscan (DiscoveRx Corporation, Fremont, CA, USA) as reported previously.[58], [59] TBPT was screened at concentrations of 5 and 10 μM to identify the affected kinases. KINOMEscan is based on a competition reaction that quantitatively measures the ability of a test compound to compete with an active site-directed ligand for binding to the kinase active site. […] After the assay plates were incubated with shaking for 1 h, the liganded beads were washed with washing buffer (1 × PBS and 0.05% Tween 20). Then, the beads were re-suspended in elution buffer (1 × PBS, 0.05% Tween 20, and 0.5 μM ligand) and incubated with shaking for 30 min. The kinase concentration in the eluates was measured via qPCR. The results are represented as ‘%Ctrl', which was calculated using the following formula: (test compound signal–positive control signal)/(DMSO signal–positive control signal) × 100%. A lower % Ctrl indicates stronger binding to the kinase active site.

DCAMKL3 = target: T2, DCAMKL3 (Homo sapiens, UniProt Q9C098)
T2 construct: purchased DiscoveRx KINOMEscan
Procedure: as §1

TAOK3 = target: T3, TAOK3 (Homo sapiens, UniProt Q9H2K8)
T3 construct: purchased DiscoveRx KINOMEscan
Procedure: as §1

STK36 = target: T4, STK36 (Homo sapiens, UniProt Q9NRP7)
T4 construct: purchased DiscoveRx KINOMEscan
Procedure: as §1

TRKC = target: T5, TRKC (Homo sapiens, UniProt Q16288)
T5 construct: purchased DiscoveRx KINOMEscan
Procedure: as §1

FGFR2 = target: T6, FGFR2 (Homo sapiens, UniProt P21802)
T6 construct: purchased DiscoveRx KINOMEscan
Procedure: as §1

MARK3 = target: T7, MARK3 (Homo sapiens, UniProt P27448)
T7 construct: purchased DiscoveRx KINOMEscan
Procedure: as §1

STK39 = target: T8, STK39 (Homo sapiens, UniProt Q9UEW8)
T8 construct: purchased DiscoveRx KINOMEscan
Procedure: as §1

INSR = target: T9, INSR (Homo sapiens, UniProt P06213)
T9 construct: purchased DiscoveRx KINOMEscan
Procedure: as §1

MST1 = target: T10, MST1 (Homo sapiens, UniProt Q13043)
T10 construct: purchased DiscoveRx KINOMEscan
Procedure: as §1

PIK3CG = target: T11, PIK3CG (Homo sapiens, UniProt P48736)
T11 construct: purchased DiscoveRx KINOMEscan
Procedure: as §1

FLT4 = target: T12, FLT4 (Homo sapiens, UniProt P35916)
T12 construct: purchased DiscoveRx KINOMEscan
Procedure: as §1

MAK = target: T13, MAK (Homo sapiens, UniProt P20794)
T13 construct: purchased DiscoveRx KINOMEscan
Procedure: as §1

NEK3 = target: T14, NEK3 (Homo sapiens, UniProt P51956)
T14 construct: purchased DiscoveRx KINOMEscan
Procedure: as §1

PIK3CA(M1043I) = target: T15, PIK3CA(M1043I) (Homo sapiens, UniProt P42336, M1043I)
T15 construct: purchased DiscoveRx KINOMEscan
Procedure: as §1

EPHA7 = target: T16, EPHA7 (Homo sapiens, UniProt Q15375)
T16 construct: purchased DiscoveRx KINOMEscan
Procedure: as §1

ASK2 = target: T17, ASK2 (Homo sapiens, UniProt O95382)
T17 construct: purchased DiscoveRx KINOMEscan
Procedure: as §1

PIM3 = target: T18, PIM3 (Homo sapiens, UniProt Q86V86)
T18 construct: purchased DiscoveRx KINOMEscan
Procedure: as §1

ERN1 = target: T19, ERN1 (Homo sapiens, UniProt O75460)
T19 construct: purchased DiscoveRx KINOMEscan
Procedure: as §1

ERK3 = target: T20, ERK3 (Homo sapiens, UniProt Q16659)
T20 construct: purchased DiscoveRx KINOMEscan
Procedure: as §1

DDR2 = target: T21, DDR2 (Homo sapiens, UniProt Q16832)
T21 construct: purchased DiscoveRx KINOMEscan
Procedure: as §1

FGFR1 = target: T22, FGFR1 (Homo sapiens, UniProt P11362)
T22 construct: purchased DiscoveRx KINOMEscan
Procedure: as §1

MAP3K4 = target: T23, MAP3K4 (Homo sapiens, UniProt Q9Y6R4)
T23 construct: purchased DiscoveRx KINOMEscan
Procedure: as §1

PIP5K1A = target: T24, PIP5K1A (Homo sapiens, UniProt Q99755)
T24 construct: purchased DiscoveRx KINOMEscan
Procedure: as §1

SIK = target: T25, SIK (Homo sapiens, UniProt P57059)
T25 construct: purchased DiscoveRx KINOMEscan
Procedure: as §1

PKAC-beta = target: T26, PKAC-beta (Homo sapiens, UniProt P22694)
T26 construct: purchased DiscoveRx KINOMEscan
Procedure: as §1

CAMK2D = target: T27, CAMK2D (Homo sapiens, UniProt Q13557)
T27 construct: purchased DiscoveRx KINOMEscan
Procedure: as §1

CDK11 = target: T28, CDK11 (Homo sapiens, UniProt Q9BWU1)
T28 construct: purchased DiscoveRx KINOMEscan
Procedure: as §1

p38-delta = target: T29, p38-delta (Homo sapiens, UniProt O15264)
T29 construct: purchased DiscoveRx KINOMEscan
Procedure: as §1

WEE1 = target: T30, WEE1 (Homo sapiens, UniProt P30291)
T30 construct: purchased DiscoveRx KINOMEscan
Procedure: as §1

PRKR = target: T31, PRKR (Homo sapiens, UniProt P19525)
T31 construct: purchased DiscoveRx KINOMEscan
Procedure: as §1

T30 sequence (P30291 whole entry): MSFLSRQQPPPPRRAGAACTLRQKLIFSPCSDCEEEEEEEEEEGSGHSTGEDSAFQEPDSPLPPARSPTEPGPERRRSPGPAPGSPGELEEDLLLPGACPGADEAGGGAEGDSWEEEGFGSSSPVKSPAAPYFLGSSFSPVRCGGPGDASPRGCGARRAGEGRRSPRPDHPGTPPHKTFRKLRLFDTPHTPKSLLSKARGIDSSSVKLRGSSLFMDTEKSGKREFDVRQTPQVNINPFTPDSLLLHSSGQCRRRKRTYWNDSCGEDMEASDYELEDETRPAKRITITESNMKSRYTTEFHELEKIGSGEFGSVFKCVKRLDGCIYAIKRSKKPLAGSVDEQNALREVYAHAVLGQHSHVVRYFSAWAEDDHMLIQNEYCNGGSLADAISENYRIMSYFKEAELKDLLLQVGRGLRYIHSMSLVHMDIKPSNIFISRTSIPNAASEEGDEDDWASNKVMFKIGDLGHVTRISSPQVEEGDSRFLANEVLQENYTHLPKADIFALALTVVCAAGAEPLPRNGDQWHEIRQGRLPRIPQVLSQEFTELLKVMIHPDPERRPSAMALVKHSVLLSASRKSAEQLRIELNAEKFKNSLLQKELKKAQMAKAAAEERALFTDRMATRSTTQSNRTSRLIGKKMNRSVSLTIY
T6 sequence (P21802 22-821): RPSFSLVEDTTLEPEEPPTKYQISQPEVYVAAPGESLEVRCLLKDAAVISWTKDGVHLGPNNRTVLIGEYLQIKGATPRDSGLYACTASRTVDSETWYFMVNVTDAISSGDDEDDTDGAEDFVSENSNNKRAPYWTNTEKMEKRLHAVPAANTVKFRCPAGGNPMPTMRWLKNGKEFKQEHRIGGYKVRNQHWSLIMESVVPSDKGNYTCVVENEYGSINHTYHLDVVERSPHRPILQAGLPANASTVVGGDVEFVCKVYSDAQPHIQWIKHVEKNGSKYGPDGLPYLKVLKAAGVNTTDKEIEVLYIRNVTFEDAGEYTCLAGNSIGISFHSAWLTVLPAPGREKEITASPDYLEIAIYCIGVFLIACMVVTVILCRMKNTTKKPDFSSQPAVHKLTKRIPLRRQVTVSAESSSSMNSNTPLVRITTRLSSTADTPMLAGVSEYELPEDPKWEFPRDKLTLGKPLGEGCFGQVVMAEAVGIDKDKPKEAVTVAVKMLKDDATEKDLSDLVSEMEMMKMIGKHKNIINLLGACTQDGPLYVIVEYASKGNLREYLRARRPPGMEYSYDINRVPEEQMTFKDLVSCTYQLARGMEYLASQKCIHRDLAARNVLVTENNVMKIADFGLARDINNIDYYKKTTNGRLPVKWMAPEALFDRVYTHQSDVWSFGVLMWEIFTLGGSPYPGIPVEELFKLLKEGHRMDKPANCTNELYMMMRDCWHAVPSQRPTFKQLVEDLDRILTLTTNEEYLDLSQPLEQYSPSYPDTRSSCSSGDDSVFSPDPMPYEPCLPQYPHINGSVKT
T15 sequence (P42336 whole entry M1043I): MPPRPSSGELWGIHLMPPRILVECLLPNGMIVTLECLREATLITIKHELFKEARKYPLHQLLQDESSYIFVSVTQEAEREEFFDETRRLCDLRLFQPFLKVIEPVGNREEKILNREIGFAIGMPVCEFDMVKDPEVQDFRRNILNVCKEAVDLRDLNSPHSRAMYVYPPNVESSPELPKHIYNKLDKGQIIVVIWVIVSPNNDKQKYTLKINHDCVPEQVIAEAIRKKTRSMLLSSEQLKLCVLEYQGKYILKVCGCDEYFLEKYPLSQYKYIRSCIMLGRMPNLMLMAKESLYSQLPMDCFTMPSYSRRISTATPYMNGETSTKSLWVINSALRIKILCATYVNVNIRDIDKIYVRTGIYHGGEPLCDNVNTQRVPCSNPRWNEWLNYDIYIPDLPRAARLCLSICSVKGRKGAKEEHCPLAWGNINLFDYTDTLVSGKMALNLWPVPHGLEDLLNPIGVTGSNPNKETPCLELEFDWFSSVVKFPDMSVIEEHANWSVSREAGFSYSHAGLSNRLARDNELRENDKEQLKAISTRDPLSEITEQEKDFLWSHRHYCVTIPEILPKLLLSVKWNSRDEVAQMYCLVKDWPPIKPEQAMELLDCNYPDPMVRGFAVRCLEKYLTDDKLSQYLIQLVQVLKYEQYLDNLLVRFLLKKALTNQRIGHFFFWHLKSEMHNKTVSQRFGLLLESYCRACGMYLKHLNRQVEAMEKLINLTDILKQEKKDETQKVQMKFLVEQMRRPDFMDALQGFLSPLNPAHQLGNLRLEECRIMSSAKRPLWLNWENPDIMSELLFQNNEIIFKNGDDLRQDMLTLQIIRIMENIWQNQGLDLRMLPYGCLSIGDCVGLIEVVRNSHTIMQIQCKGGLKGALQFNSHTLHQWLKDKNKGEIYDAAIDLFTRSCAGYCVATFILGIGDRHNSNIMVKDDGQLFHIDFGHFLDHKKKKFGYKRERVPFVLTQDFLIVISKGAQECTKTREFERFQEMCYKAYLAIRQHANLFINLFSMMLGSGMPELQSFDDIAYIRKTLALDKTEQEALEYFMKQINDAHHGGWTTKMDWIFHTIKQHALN
T16 sequence (Q15375 28-998): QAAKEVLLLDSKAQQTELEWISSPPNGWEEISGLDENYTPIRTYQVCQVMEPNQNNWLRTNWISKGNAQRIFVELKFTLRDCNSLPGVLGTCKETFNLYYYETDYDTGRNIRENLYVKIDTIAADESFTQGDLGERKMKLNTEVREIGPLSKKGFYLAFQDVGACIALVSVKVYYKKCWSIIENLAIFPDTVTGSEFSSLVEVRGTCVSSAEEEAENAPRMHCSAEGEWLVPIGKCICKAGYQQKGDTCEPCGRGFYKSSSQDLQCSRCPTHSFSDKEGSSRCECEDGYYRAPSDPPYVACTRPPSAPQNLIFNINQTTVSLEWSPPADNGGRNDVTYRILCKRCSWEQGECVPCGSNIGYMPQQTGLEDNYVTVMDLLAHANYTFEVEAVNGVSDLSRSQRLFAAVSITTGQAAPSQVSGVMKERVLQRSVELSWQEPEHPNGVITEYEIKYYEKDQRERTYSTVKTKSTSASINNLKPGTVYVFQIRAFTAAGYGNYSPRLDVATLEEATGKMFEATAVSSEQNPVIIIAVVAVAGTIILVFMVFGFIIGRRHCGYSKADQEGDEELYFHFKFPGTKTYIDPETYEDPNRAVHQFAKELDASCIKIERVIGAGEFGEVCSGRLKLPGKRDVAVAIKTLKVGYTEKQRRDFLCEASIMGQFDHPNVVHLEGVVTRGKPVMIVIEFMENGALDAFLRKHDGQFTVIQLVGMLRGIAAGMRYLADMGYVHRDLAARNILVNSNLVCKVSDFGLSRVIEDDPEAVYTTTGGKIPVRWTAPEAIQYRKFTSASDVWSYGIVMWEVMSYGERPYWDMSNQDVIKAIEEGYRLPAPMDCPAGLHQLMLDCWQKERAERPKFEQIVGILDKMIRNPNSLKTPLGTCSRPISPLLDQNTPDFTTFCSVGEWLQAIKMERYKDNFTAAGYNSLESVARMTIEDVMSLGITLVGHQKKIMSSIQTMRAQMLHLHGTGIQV
T5 sequence (Q16288 32-839): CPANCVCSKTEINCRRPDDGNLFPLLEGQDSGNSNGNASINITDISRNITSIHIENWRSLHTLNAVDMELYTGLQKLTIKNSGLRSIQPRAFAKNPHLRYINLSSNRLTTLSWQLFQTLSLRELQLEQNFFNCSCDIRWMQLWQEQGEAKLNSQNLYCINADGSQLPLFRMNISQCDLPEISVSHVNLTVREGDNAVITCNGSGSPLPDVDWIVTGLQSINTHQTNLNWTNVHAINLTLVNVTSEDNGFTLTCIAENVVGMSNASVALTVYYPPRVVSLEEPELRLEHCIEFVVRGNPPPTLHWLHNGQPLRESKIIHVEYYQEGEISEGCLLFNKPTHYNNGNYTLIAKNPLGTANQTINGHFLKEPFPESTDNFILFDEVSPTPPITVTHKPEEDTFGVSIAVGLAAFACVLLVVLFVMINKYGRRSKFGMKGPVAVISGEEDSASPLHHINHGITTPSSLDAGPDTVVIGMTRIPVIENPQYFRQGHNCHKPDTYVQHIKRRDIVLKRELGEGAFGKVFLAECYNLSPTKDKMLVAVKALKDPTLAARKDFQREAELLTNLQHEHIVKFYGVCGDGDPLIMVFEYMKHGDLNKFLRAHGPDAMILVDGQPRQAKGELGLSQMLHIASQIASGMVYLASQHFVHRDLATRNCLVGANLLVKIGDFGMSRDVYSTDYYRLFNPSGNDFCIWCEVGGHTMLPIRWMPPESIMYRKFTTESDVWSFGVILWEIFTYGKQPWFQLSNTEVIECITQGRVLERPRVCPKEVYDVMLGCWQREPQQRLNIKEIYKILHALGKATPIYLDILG
T2 sequence (Q9C098 whole entry): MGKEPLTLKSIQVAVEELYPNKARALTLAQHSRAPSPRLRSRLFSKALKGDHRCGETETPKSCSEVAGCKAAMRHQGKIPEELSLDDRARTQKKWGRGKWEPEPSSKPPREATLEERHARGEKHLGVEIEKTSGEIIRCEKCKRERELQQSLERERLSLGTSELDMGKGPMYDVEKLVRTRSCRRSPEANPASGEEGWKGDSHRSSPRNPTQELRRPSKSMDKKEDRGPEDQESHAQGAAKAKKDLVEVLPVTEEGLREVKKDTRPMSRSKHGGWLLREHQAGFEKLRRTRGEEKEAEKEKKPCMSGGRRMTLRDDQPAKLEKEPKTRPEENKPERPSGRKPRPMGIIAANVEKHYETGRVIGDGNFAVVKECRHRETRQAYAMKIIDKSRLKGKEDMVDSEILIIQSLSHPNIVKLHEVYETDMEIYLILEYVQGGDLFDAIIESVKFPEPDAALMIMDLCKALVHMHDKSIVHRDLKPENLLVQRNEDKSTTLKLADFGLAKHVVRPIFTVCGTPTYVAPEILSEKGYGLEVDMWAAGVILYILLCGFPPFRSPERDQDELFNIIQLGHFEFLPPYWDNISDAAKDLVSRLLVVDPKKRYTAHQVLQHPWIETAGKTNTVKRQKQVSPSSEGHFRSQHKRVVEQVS

SMILES: Cc1ccc(C2=Nc3cccnc3S(=O)(=O)c3ccccc32)cc1 [TBPT, 6-(p-tolyl)benzo[f] pyrido[2,3-b][1,4] thiazepine 11,11-dioxide]
- remaining binding at 5 µM (TRKA; 5 μM): 100%
- remaining binding at 10 µM (TRKA; 10 μM): 97%
- remaining binding at 5 µM (DCAMKL3; 5 μM): 100%
- remaining binding at 10 µM (DCAMKL3; 10 μM): 79%
- remaining binding at 5 µM (TAOK3; 5 μM): 89%
- remaining binding at 10 µM (TAOK3; 10 μM): 100%
- remaining binding at 5 µM (STK36; 5 μM): 84%
- remaining binding at 10 µM (STK36; 10 μM): 100%
- remaining binding at 5 µM (TRKC; 5 μM): 100%
- remaining binding at 10 µM (TRKC; 10 μM): 96%
- remaining binding at 5 µM (FGFR2; 5 μM): 93%
- remaining binding at 10 µM (FGFR2; 10 μM): 100%
- remaining binding at 5 µM (MARK3; 5 μM): 96%
- remaining binding at 10 µM (MARK3; 10 μM): 87%
- remaining binding at 5 µM (STK39; 5 μM): 100%
- remaining binding at 10 µM (STK39; 10 μM): 62%
- remaining binding at 5 µM (INSR; 5 μM): 98%
- remaining binding at 10 µM (INSR; 10 μM): 84%
- remaining binding at 5 µM (MST1; 5 μM): 93%
- remaining binding at 10 µM (MST1; 10 μM): 100%
- remaining binding at 5 µM (PIK3CG; 5 μM): 89%
- remaining binding at 10 µM (PIK3CG; 10 μM): 80%
- remaining binding at 5 µM (FLT4; 5 μM): 100%
- remaining binding at 10 µM (FLT4; 10 μM): 100%
- remaining binding at 5 µM (MAK; 5 μM): 94%
- remaining binding at 10 µM (MAK; 10 μM): 100%
- remaining binding at 5 µM (NEK3; 5 μM): 100%
- remaining binding at 10 µM (NEK3; 10 μM): 100%
- remaining binding at 5 µM (PIK3CA(M1043I); 5 μM): 100%
- remaining binding at 10 µM (PIK3CA(M1043I); 10 μM): 100%
- remaining binding at 5 µM (EPHA7; 5 μM): 93%
- remaining binding at 10 µM (EPHA7; 10 μM): 100%
- remaining binding at 5 µM (ASK2; 5 μM): 82%
- remaining binding at 10 µM (ASK2; 10 μM): 100%
- remaining binding at 5 µM (PIM3; 5 μM): 96%
- remaining binding at 10 µM (PIM3; 10 μM): 100%
- remaining binding at 5 µM (ERN1; 5 μM): 92%
- remaining binding at 10 µM (ERN1; 10 μM): 100%
- remaining binding at 5 µM (ERK3; 5 μM): 100%
- remaining binding at 10 µM (ERK3; 10 μM): 100%
- remaining binding at 5 µM (DDR2; 5 μM): 100%
- remaining binding at 10 µM (DDR2; 10 μM): 99%
- remaining binding at 5 µM (FGFR1; 5 μM): 98%
- remaining binding at 10 µM (FGFR1; 10 μM): 100%
- remaining binding at 5 µM (MAP3K4; 5 μM): 99%
- remaining binding at 10 µM (MAP3K4; 10 μM): 96%
- remaining binding at 5 µM (PIP5K1A; 5 μM): 98%
- remaining binding at 10 µM (PIP5K1A; 10 μM): 100%
- remaining binding at 5 µM (SIK; 5 μM): 92%
- remaining binding at 10 µM (SIK; 10 μM): 92%
- remaining binding at 5 µM (PKAC-beta; 5 μM): 96%
- remaining binding at 10 µM (PKAC-beta; 10 μM): 100%
- remaining binding at 5 µM (CAMK2D; 5 μM): 94%
- remaining binding at 10 µM (CAMK2D; 10 μM): 100%
- remaining binding at 5 µM (CDK11; 5 μM): 100%
- remaining binding at 10 µM (CDK11; 10 μM): 100%
- remaining binding at 5 µM (p38-delta; 5 μM): 75%
- remaining binding at 10 µM (p38-delta; 10 μM): 65%
- remaining binding at 5 µM (WEE1; 5 μM): 100%
- remaining binding at 10 µM (WEE1; 10 μM): 96%
- remaining binding at 5 µM (PRKR; 5 μM): 97%
- remaining binding at 10 µM (PRKR; 10 μM): 90%
